Tested on: pERK in NCI-H358 cells
Experiment: Cell-based pERK HTRF assay (pERK inhibition in H358 cells)
Conditions: Homo sapiens, NCI-H358, 0.5 h, pERK inhibition IC50, NCI-H358 cells, 30 min incubation; read-out: PERK in H358 cell
Description: On Day 1, cells (NCI-H358) were seeded into 96-well plates at 4×10^4 cells/well in complete growth media (RPMI, 10% FBS).
The source plate was created with compounds diluted in media at 5-fold the final assay concentration. […] 20 μL was transferred onto the cell plates (final volume in wells was 100 μL). Plates were harvested after 30 min incubation by aspirating media and adding kit-supplied 1× supplemented lysis buffer to all wells (75 μl per well). Plates were then placed on a plate shaker and incubated at 850 rpm for an additional 30 min.
Antibody mixture solution was prepared by diluting aliquoted d2 and Eu Cryptate antibodies 1:20 in kit supplied detection buffer, then mixed the diluted antibodies solutions (1:1 v:v).
Samples were homogenized by pipetting up and down and then transferred (16 μL of cell lysates) from the 96-well cell culture plate to two wells of the HTRF 384-well detection plate containing the antibody solution. Plates were centrifuged (524 g for 1 min) and allowed to incubate between 4 and 24 h at room temperature. Maximum signal is reached after 4 h incubation time and remains stable over a period of 24 hours. Therefore, readings can be made between 4 and 24 h of incubation.

Row | SMILES | IC50 [nM]
1 | C=CC(=O)N1CC(N(CCC#N)c2nc(OC[C@@H]3CCCN3C)nc3c(F)c(-c4ccc(F)c5sc(N)nc45)c(Cl)cc23)C1 [Compound 141] | > 1000
2 | CC#CC(=O)N1CCN(c2nc(OC[C@]34CCCN3C[C@H](F)C4)nc3c(F)c(-c4ccc(F)c5sc(N)nc45)c(C(F)(F)F)cc23)CC1 [Compound 149] | < 100
3 | C=CC(=O)N1CCN(c2nc(OC[C@]34CCCN3C[C@H](F)C4)nc3c(F)c(-c4ccc(F)c5sc(N)nc45)c(C(F)(F)F)cc23)CC1 [Compound 150] | < 100
4 | C=CC(=O)N1CC(N(c2nc(OCC34CCCN3CCC4)nc3c(F)c(-c4ccc(F)c5sc(N)nc45)c(Cl)cc23)C2CC2)C1 [Compound 151] | > 1000
5 | C=CC(=O)N1CC(N(c2nc(OCC34CCCN3CCC4)nc3c(F)c(-c4ccc(F)c5sc(N)nc45)c(C(F)(F)F)cc23)C2CC2)C1 [Compound 152] | > 1000
6 | C=CC(=O)N1CCN(c2nc(OC[C@@H]3CCCN3CCF)nc3c(F)c(-c4ccc(F)c5sc(N)nc45)c(C(F)(F)F)cc23)CC1 [Compound 153] | < 100
7 | CC#CC(=O)N1CCN(c2nc(OC[C@@H]3CCCN3CCF)nc3c(F)c(-c4ccc(F)c5sc(N)nc45)c(C(F)(F)F)cc23)CC1 [Compound 154] | 100 to 1000
8 | C=CC(=O)N1CCN(c2nc(OC[C@@H]3CCCN3CC(F)F)nc3c(F)c(-c4ccc(F)c5sc(N)nc45)c(C(F)(F)F)cc23)CC1 [Compound 156] | < 100
9 | C=CC(=O)N1CC(N(c2nc(OCC3CCCN3C)nc3c(F)c(-c4ccc(F)c5sc(N)nc45)c(Cl)cc23)C(C)C)C1 (stereo not shown) [Compound 159] | > 1000
10 | C=CC(=O)N1C2CC1CN(c1nc(OCC34CCCN3CCC4)nc3c(F)c(-c4ccc(F)c5sc(N)nc45)c(Cl)cc13)C2 [Compound 161] | > 1000
11 | C=CC(=O)N1CCN(c2nc(OCC34CCCN3CCC4)nc3c(F)c(-c4ccc(F)c5oc(N)nc45)c(C(F)(F)F)cc23)CC1 [Compound 162, 1-(4-(7-(2-amino-7-fluorobenzo[d]oxazol-4-yl)-8-fluoro-2-((tetrahydro-1H-pyrrolizin-7a(5H)-yl)methoxy)-6-(trifluoromethyl)quinazolin-4-yl)piperazin-1-yl)prop-2-en-1-one] | 100 to 1000
12 | C=CC(=O)N1CCN(c2nc(OC[C@@H]3CCCN3C)nc3c(F)c(-c4ccc(F)c5sc(N)nc45)c(OC(F)(F)F)cc23)CC1 [Compound 163] | 100 to 1000
13 | C=CC(=O)N1CCN(c2nc(OC[C@]34CCCN3C[C@H](F)C4)nc3c(F)c(-c4ccc(F)c5sc(N)nc45)c(C(F)(F)F)cc23)C[C@@H]1C [Compound 165] | < 100
14 | C=CC(=O)N1CC[C@@H]2[C@H]1CN2c1nc(OCC23CCCN2CCC3)nc2c(F)c(-c3ccc(F)c4sc(N)nc34)c(C(F)(F)F)cc12 [Compound 166] | 100 to 1000
15 | C=CC(=O)N(C)C1CN(c2nc(OCC34CCCN3CCC4)nc3c(F)c(-c4ccc(F)c5sc(N)nc45)c(Cl)cc23)C1 [Compound 167] | > 1000
16 | C=CC(=O)N1CC(N(C)c2nc(OC[C@]34CCCN3C[C@H](F)C4)nc3c(F)c(-c4ccc(F)c5sc(N)nc45)c(Cl)cc23)C1 [Compound 169] | 100 to 1000
17 | CC#CC(=O)N1CCN(c2nc(OCC34CCCN3CC(C)(C)C4)nc3c(F)c(-c4ccc(F)c5sc(N)nc45)c(C(F)(F)F)cc23)CC1 (stereo not shown) [Compound 170] | 100 to 1000

Row | SMILES | IC50 [nM]
18 | C=CC(=O)N1CCN(c2nc(OCC34CCCN3CC(C)(C)C4)nc3c(F)c(-c4ccc(F)c5sc(N)nc45)c(C(F)(F)F)cc23)CC1 (stereo not shown) [Compound 171, 1-(4-(7-(2-amino-7-fluorobenzo[d]thiazol-4-yl)-2-((2,2-dimethyltetrahydro-1H-pyrrolizin-7a(5H)-yl)methoxy)-8-fluoro-6-(trifluoromethyl)quinazolin-4-yl)piperazin-1-yl)prop-2-en-1-one] | < 100
19 | CC#CC(=O)N(C)C1CN(c2nc(OCC34CCCN3CCC4)nc3c(F)c(-c4ccc(F)c5sc(N)nc45)c(Cl)cc23)C1 [Compound 172] | > 1000
20 | C=CC(=O)N1CCN(c2nc(OC[C@]34CCCN3C[C@H](F)C4)nc3c(F)c(-c4ccc(F)c5sc(N)nc45)c(C(F)(F)F)cc23)[C@@H](C)C1 [Compound 177] | < 100
21 | C=CC(=O)N1CC(N(c2nc(OC[C@]34CCCN3C[C@H](F)C4)nc3c(F)c(-c4ccc(F)c5sc(N)nc45)c(C(F)(F)F)cc23)C2CC2)C1 [Compound 178, 1-(3-((7-(2-amino-7-fluorobenzo[d]thiazol-4-yl)-8-fluoro-2-(((2R,7aR)-2-fluorotetrahydro-1H-pyrrolizin-7a(5H)-yl)methoxy)-6-(trifluoromethyl)quinazolin-4-yl)(cyclopropyl)amino)azetidin-1-yl)prop-2-en-1-one] | 100 to 1000
22 | CC#CC(=O)N1CC[C@@H]2[C@H]1CN2c1nc(OCC23CCCN2CCC3)nc2c(F)c(-c3ccc(F)c4sc(N)nc34)c(C(F)(F)F)cc12 [Compound 180] | > 1000
23 | C=CC(=O)N1CC(N(C)c2nc(OC[C@@H]3CC(F)(F)CN3C)nc3c(F)c(-c4ccc(F)c5sc(N)nc45)c(C(F)(F)F)cc23)C1 [Compound 181] | > 1000
24 | C=CC(=O)N1CC[C@H](N(C)c2nc(OC[C@@]34CCCN3C[C@H](F)C4)nc3c(F)c(-c4ccc(F)c5sc(N)nc45)c(Cl)cc23)C1 [Compound 185] | 100 to 1000
25 | C=C(F)C(=O)N1CCN(c2nc(OC[C@@]34CCCN3C[C@H](F)C4)nc3c(F)c(-c4ccc(F)c5sc(N)nc45)c(C(F)(F)F)cc23)CC1 [Compound 186] | 100 to 1000
26 | C=CC(=O)N1CC(N(C)c2nc(OCC34CCCN3CC(F)(F)C4)nc3c(F)c(-c4ccc(F)c5sc(N)nc45)c(C(F)(F)F)cc23)C1 (stereo not shown) [Compound 187] | 100 to 1000
27 | C=CC(=O)N1CC[C@H](N(C)c2nc(OC[C@@]34CCCN3C[C@H](F)C4)nc3c(F)c(-c4ccc(F)c5sc(N)nc45)c(C(F)(F)F)cc23)C1 [Compound 188] | 100 to 1000
28 | C=CC(=O)N1CCN(c2nc(OC[C@@]34CCCN3C[C@H](F)C4)nc3c(F)c(-c4ccc(F)c5sc(N)nc45)c(C(F)(F)F)cc23)[C@@H](C)C1 [Compound 189] | < 100
29 | C=CC(=O)N1CCN(c2nc(OC[C@]34CCCN3C[C@H](F)C4)nc3c(F)c(-c4ccc(F)c5sc(N)nc45)c(C(F)(F)F)cc23)C[C@H]1C [Compound 190] | < 100
30 | C=C(F)C(=O)N1CCN(c2nc(OC[C@]34CCCN3C[C@H](F)C4)nc3c(F)c(-c4ccc(F)c5sc(N)nc45)c(C(F)(F)F)cc23)C[C@H]1C [Compound 191] | 100 to 1000
31 | C=CC(=O)N1CCN(c2nc(OCC34CCCN3CC(F)(F)C4)nc3c(F)c(-c4ccc(F)c5sc(N)nc45)c(C(F)(F)F)cc23)CC1 (stereo not shown) [Compound 192] | < 100
32 | CC#CC(=O)N1CCN(c2nc(OCC34CCCN3CC(F)(F)C4)nc3c(F)c(-c4ccc(F)c5sc(N)nc45)c(C(F)(F)F)cc23)CC1 (stereo not shown) [Compound 193] | > 1000
33 | C=CC(=O)N1CCN(c2nc(OC[C@@]34CCCN3C[C@H](F)C4)nc3c(F)c(-c4ccc(F)c5sc(N)nc45)c(C(F)(F)F)cc23)CC1 [Compound 194] | < 100
34 | C=CC(=O)N1CC[C@@H](N(C)c2nc(OC[C@@]34CCCN3C[C@H](F)C4)nc3c(F)c(-c4ccc(F)c5sc(N)nc45)c(Cl)cc23)C1 [Compound 195, 1-((3R)-3-((7-(2-amino-7-fluorobenzo[d]thiazol-4-yl)-6-chloro-8-fluoro-2-(((2R,7aS)-2-fluorotetrahydro-1H-pyrrolizin-7a(5H)-yl)methoxy)quinazolin-4-yl)(methyl)amino)pyrrolidin-1-yl)prop-2-en-1-one] | < 100

— US12528818B2, “Compositions and methods for inhibition of RAS” (Leidos Biomedical Research, Inc., priority 2021, dated 2026)
